What was measured:
Rta PhoX1 = target: T1, Rta PhoX1 (Ramlibacter tataouinensis, UniProt F5Y472); experiment: p-nitrophenol release at […] nm, total soluble protein of expressing E. coli; assay type: biochemical; conditions: 50 mM Tris pH 8, 5 mM CaCl2, 5 mM MgCl2, 0.6 mM substrate
T1 construct: gene Rta_14460; codon-optimised synthetic gene in pET-22b (MscI/BamHI), E. coli BL21(DE3); total soluble protein extract; precursor 643 aa, predicted Tat signal 51 aa; no precursor form seen on SDS-PAGE
T1 sequence (F5Y472 52-643): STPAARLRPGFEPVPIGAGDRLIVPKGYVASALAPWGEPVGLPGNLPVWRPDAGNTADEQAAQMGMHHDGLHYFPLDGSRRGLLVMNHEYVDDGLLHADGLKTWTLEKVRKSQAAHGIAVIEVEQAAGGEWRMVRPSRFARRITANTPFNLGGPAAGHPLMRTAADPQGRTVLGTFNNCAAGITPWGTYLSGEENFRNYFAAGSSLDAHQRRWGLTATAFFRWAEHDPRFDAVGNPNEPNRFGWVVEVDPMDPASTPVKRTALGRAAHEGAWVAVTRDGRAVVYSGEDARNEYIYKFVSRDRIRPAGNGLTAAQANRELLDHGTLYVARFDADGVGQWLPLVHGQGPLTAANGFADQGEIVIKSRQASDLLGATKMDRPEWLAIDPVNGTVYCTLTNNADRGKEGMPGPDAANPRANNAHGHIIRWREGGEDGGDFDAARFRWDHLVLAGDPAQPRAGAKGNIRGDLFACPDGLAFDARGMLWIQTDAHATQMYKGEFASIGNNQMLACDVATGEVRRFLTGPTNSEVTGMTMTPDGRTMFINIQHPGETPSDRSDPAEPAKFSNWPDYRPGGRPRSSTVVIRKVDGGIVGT

Rta PhoD = target: T2, Rta PhoD (Ramlibacter tataouinensis, UniProt F5XVP7); experiment: as above; assay type: biochemical; conditions: 50 mM Tris pH 8, 5 mM CaCl2, 5 mM MgCl2, 0.6 mM substrate
T2 construct: codon-optimised synthetic gene in pET-22b (MscI/BamHI), E. coli BL21(DE3); total soluble protein extract; precursor 530 aa, predicted Tat signal 31 aa; no precursor form seen on SDS-PAGE
T2 sequence (F5XVP7 32-530): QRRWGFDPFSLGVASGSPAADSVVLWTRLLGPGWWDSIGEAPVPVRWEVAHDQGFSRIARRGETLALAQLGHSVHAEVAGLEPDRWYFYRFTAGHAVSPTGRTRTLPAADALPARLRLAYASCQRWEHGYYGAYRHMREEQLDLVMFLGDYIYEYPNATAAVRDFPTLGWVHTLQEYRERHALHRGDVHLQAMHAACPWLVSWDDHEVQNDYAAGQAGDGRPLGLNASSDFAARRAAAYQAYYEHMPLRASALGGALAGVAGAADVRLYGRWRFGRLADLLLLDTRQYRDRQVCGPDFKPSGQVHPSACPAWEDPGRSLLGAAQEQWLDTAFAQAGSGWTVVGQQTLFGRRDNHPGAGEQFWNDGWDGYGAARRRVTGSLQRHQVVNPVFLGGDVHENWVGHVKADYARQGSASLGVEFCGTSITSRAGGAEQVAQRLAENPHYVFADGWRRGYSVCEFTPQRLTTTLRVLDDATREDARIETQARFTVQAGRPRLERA

Compound	p-nitrophenol release at 405 nm, total soluble protein of expressing E. coli (Rta PhoX1)	p-nitrophenol release at 405 nm, total soluble protein of expressing E. coli (Rta PhoD)
O=[N+]([O-])c1ccc(OP(=O)(O)Oc2ccc([N+](=O)[O-])cc2)cc1 [bis-pNPP, bis p-nitrophenylphosphate]	PhoD and PhoX1 hydrolyzed all the pNPP derivatives (pNPP, bis-pNPP, and TpNPP)	the activity of PhoD was higher for bis-pNPP diester
O=[N+]([O-])c1ccc(OP(=O)(O)O)cc1 [pNPP, p-nitrophenylphosphate]	the activity of PhoX1 was higher for monoester	PhoD and PhoX1 hydrolyzed all the pNPP derivatives (pNPP, bis-pNPP, and TpNPP)
